In brackets after ≈: the same amount, converted by molar mass.
Conditions: buffer; pH 7.4; 6.0 h; 150.0 µM

Row | SMILES | solubility kinetic [µg/mL]
1 | O=C(O)CCNc1cc(N2CCc3ccccc3CC2)nc(-c2ccccn2)n1 | > 58
2 | COc1cccc(Nc2ncc(-c3cccc(N(C)C)c3)c3c2OCC3)c1 | < 1
3 | COc1ncccc1-c1cc2c(ccn2C(C)C)c(C(=O)NCc2c(C)cc(C)[nH]c2=O)n1 | 10.1 (≈ 22.8 µM)
4 | Cc1cc2c(-c3cccc(O)c3)nc(-c3c(C)noc3C)cc2[nH]1 | < 1
5 | O=C(c1ccc2c(c1)ncn2-c1cccc(Cl)c1)N1CCCCC1 | > 50
6 | Cc1ccc(S(=O)(=O)Nc2cnccc2C(=O)Nc2nc(-c3ccc4c(c3)CCCC4)cs2)cc1 | < 1
7 | O=C(Nc1nc(-c2ccccc2)cs1)c1ccncc1NS(=O)(=O)c1ccccc1Cl | 20 (≈ 42.4 µM)
8 | N#Cc1cccc(-c2csc(N3CCC(C(N)=O)CC3)n2)c1 | 10.7 (≈ 34.3 µM)
9 | Cc1ccc(-c2cc(C(=O)NC3CCCCC3)c3ccccc3n2)cc1 | < 1
10 | O=C(NCCc1nc2ccccc2n1CCO)C1CCCCC1 | > 47
11 | O=c1cc(CN2CCCN(c3ccc(C(F)(F)F)cn3)CC2)nc2ccccn12 | > 60
12 | O=C1Nc2c(Cl)cccc2/C1=C\c1cc(Cl)c(O)c(Cl)c1 | 7.3 (≈ 21.4 µM)
13 | COC(=O)c1c(NC(=O)Cc2coc3cc(C)ccc23)sc2c1CCC2 | < 1
14 | CC[C@@]1(O)C(=O)OCc2c1cc1n(c2=O)Cc2c-1nc1ccccc1c2CCNC(C)C | > 6
15 | COc1cccc(-c2csc(N3CCC(C(N)=O)CC3)n2)c1 | > 47
16 | CC1CCCCN1c1ncnc(N)c1[N+](=O)[O-] (centres undefined) | > 35
17 | COc1ccc(-n2nc(C3CCCN([S+](=O)([O-])c4cccc(C(F)(F)F)c4)C3)[nH]c2=O)cc1 (centres undefined) | < 1
18 | CCO.Nc1nc(N)c2cc(Sc3ccc4ccccc4c3)ccc2n1 | < 1
19 | Cc1cc(C)c(CNC(=O)c2nc(-c3ccc(F)cc3)cc3c2ccn3C(C)C)c(=O)[nH]1 | < 1
20 | CN(C)c1cccc(-c2cc(N3CCC(C(N)=O)CC3)ncn2)c1 | > 48
21 | CC1(C)CC(=O)C2=C(C1)NC(Nc1nc3ccccc3o1)=NC2c1ccccc1Cl (centres undefined) | < 1

Row | SMILES | solubility kinetic [µg/mL]
22 | CC1=C(C(=O)NC2CCCCC2)C(c2ccccc2Br)N=C(Nc2nc3ccccc3o2)N1 (centres undefined) | < 1
23 | COc1ccc(Nc2cc3c(nc2OC)nc(CCc2ccccc2)n3C)cn1 | 22.4 (≈ 57.5 µM)
24 | O=C(Cn1ccn2nc3c(c2c1=O)CCCCC3)Nc1ccc2c(c1)OCO2 | < 1
25 | Cc1cn2c(-c3cn[nH]c3)cnc2c(Nc2ccc(C(=O)N3CCNCC3)cc2F)n1 | 13.4 (≈ 31.8 µM)
26 | O=c1c2c([nH]c3ccc(Br)cc13)CCCC2 | 4.86 (≈ 17.5 µM)
27 | CC(C)n1cc(-c2ccc(Oc3ccccc3)cc2)c2c(N)ncnc21 | < 1
28 | CN(C)CCOc1ccc(/C(=C(/CCCl)c2ccccc2)c2ccccc2)cc1 | < 1
29 | COc1ccc(OC)c(C(=O)Nc2nc(-c3ccccc3)cs2)c1 | < 1
30 | COC(=O)c1ccccc1NC(=O)c1ccccc1OC(F)F | < 1
31 | O=C(c1ccc(C(=O)N2CCC(N3CCCC3)CC2)c(Nc2ccccc2)c1)N1CCC(N2CCCC2)CC1 | 63.8 (≈ 120 µM)
32 | CC(=O)c1c(C)[nH]c(C(=O)Nc2cccc(S(=O)(=O)Nc3ccc(Br)c(F)c3)c2)c1C | < 1
33 | Cc1cc(F)c(C(=O)Nc2cccc(-c3nncn3C(C)C)n2)cc1-n1cnc(C2CC2)c1 | 49.8 (≈ 112 µM)
34 | CCC(C)N(C)C(=O)c1cc2ccccc2c(-c2ccccc2Cl)n1 (centres undefined) | 38.6 (≈ 109 µM)
35 | C[C@@]12O[C@@H](C[C@]1(O)CO)n1c3ccccc3c3c4c(c5c6ccccc6n2c5c31)CNC4=O | 15.2 (≈ 34.6 µM)
36 | COc1ccc(C(=O)N2CCC3(CC2)CN(c2cccc(-c4ccccc4)c2)C3)cc1 | < 1
37 | Cc1nn(CCc2nc(-c3ccccc3F)cs2)c2[nH]c(=O)cc(C(F)(F)F)c12 | < 1
38 | CC(C)c1ccc2oc3nc(N)c(C(=O)O)cc3c(=O)c2c1 | > 44
39 | COc1cc(Nc2nc(-c3ccncc3)nc3ccccc23)ccc1N1CCN(C)CC1 | > 63
40 | Cc1ccc(C(=O)Nc2nc3nc(-c4ccccc4)cc(=O)n3[nH]2)cc1 | 2.64 (≈ 7.65 µM)
41 | Cc1ccc(-n2c(C)cc(-c3nnc4n3CCCCC4)c2C)cc1 | 27.8 (≈ 86.6 µM)
42 | COc1ccc(-c2nc3ccccc3c(=O)n2Cc2ccco2)cc1COc1ccc(NC(C)=O)cc1 | 2.35 (≈ 4.74 µM)

Now from value to molecule:

Row | solubility kinetic [µg/mL] | SMILES
43 | < 1 | CN(C(=O)CNC(=O)c1cc(F)ccc1OCC(=O)Nc1ccc(I)cc1)c1ccc(F)cc1
44 | < 1 | N#Cc1ccc(NS(=O)(=O)c2ccc(NC(=O)Cc3ccc(F)c(Cl)c3)cc2)cc1
45 | < 1 | Cc1ccc2oc(NC3=NC(c4ccccc4Cl)C4=C(CCCC4=O)N3)nc2c1 (centres undefined)
46 | < 1 | CC(C)(C)c1ccc(-c2nc(SCCCOc3ccccc3)n3[nH]c(=O)cc3n2)cc1
47 | > 60 | Cc1cnc(-c2ccccc2C2COC2)nc1NCc1ccc(-c2cccnc2)cc1
48 | > 72 | CCOc1ccc(CCNC(=O)c2cc3sccc3n2CCN2CCN(C)CC2)cc1OCC
49 | 24.3 (≈ 56.4 µM) | O=C(Nc1nc(-c2ccccn2)cs1)c1cccc(S(=O)(=O)N2CCOCC2)c1
50 | < 1 | COc1cccc(CNc2ccc(S(=O)(=O)Nc3ccc(-c4ccccc4)cc3)cc2)c1O
51 | > 71 | COc1cccc(-c2csc(NC(=O)c3ccncc3NS(=O)(=O)c3ccc(C)cc3)n2)c1
52 | < 1 | CSc1nn(Cc2cccc(C)c2)c(N)c1S(=O)(=O)c1ccccc1
53 | > 62 | CCOC(=O)N1CCN(Cc2nc3c(c(=O)n(C)c(=O)n3C)n2CCC(C)C)CC1
54 | < 1 | CCOc1cc2c(cc1OCC)CN(C(=O)c1cc3sccc3n1Cc1ccccc1)CC2
55 | < 1 | Fc1cnc(-c2ccccc2C(F)F)nc1NCc1ccc(-c2ccn[nH]2)cc1
56 | < 1 | CCOc1ccc(CCNC(=O)c2cc3sccc3n2Cc2ccc(Cl)c(F)c2)cc1OCC
57 | 33.7 (≈ 79.1 µM) | O=C(NCCc1cnc[nH]1)c1ccc(-c2ncc3cnc(-c4cccc(F)c4)cn23)cc1
58 | < 1 | Cc1n[nH]c(C)c1CCc1nc2c3ccccc3nc(SCC(=O)Nc3ccc(F)cc3)n2n1
59 | < 1 | N#CC1(c2ccc(NC(=O)c3cccnc3NCc3ccncc3)cc2)CCCC1
60 | 0.958 (≈ 1.79 µM) | Cc1ccc(S(=O)(=O)Nc2cnccc2C(=O)Nc2nc(-c3cc(Br)cs3)cs2)cc1
61 | 40.8 (≈ 124 µM) | O=C(NCc1ccncc1)c1nc(-c2cccnc2)c2cnccn12

Row | solubility kinetic [µg/mL] | SMILES
62 | < 1 | COc1ccc(-c2cc(C)nc3c(-c4ccc(OC)c(OC)c4)c(C)nn23)cc1
63 | < 1 | Cc1ccc(NC2=C(c3ccc(C(F)(F)F)cc3)C(=O)c3ccccc32)cc1F
64 | < 1 | Cc1ccc(-c2cc(C(=O)Nc3cccc(S(=O)(=O)Nc4nccs4)c3)c3ccccc3n2)cc1C
65 | 14.7 (≈ 40.8 µM) | Cc1nc2nc(NC(=O)c3ccc(C(C)(C)C)cc3)[nH]n2c(=O)c1Cl
66 | 2.64 (≈ 6.2 µM) | CCn1c(=O)cc(OCC(=O)N2CCN(c3cccc(Cl)c3)CC2)c2ccccc21
67 | < 1 | Cc1ccc(C)c(NC2=C(c3ccc(C(F)(F)F)cc3)C(=O)c3ccccc32)c1
68 | < 1 | CC(=O)N1CCN(c2nc(-c3ccc(Br)cc3)cs2)CC1
69 | 12.2 (≈ 25.1 µM) | Cc1ccccc1C(C(=O)NC1CCCC1)N(C(=O)Cn1cnc2ccccc21)c1cccc(F)c1 (centres undefined)
70 | 17.2 (≈ 54.6 µM) | CC(C)NC(=O)c1nc(-c2ccc(Cl)nc2)c2ccccn12
71 | 58 (≈ 118 µM) | O=C(Nc1nc(-c2ccccc2)cs1)c1ccncc1NS(=O)(=O)c1c(F)cc(F)cc1F
72 | 38.3 (≈ 114 µM) | NC(=O)C1CCN(c2nc(-c3cccc4ccccc34)cs2)CC1
73 | 4.17 (≈ 7.86 µM) | CS(=O)(=O)c1ccc(-c2nnc(/C=C/c3nnc(-c4ccc(C#N)cc4)o3)n2-c2ccccc2Cl)nc1
74 | 28.4 (≈ 85.3 µM) | NC(=O)C1CCN(c2nc(-c3cccc([N+](=O)[O-])c3)cs2)CC1
75 | < 1 | Cc1ccccc1C(=O)N1CCc2cc(-c3nc(NC(=O)Cc4ccccc4)sc3C)ccc21
76 | < 1 | CCOc1cc(F)c(CCNC(=O)c2cc3sccc3n2Cc2ccccc2)cc1OCC
77 | < 1 | O=C(Nc1nc(-c2ccc(Cl)s2)cs1)c1cccs1
78 | 45.9 (≈ 112 µM) | CN1C(=O)c2ccccc2[S@](=O)c2ccc(C(=O)NCCc3cccs3)cc21
79 | 4.56 (≈ 9.71 µM) | O=C(Nc1ccccc1-c1cn2c(CN3CCNCC3)csc2n1)c1cnc2ccccc2n1
80 | 32.6 (≈ 122 µM) | Cn1cc(Nc2cnccc2C(=O)O)c2cccnc21

Row | solubility kinetic [µg/mL] | SMILES
81 | 54.6 (≈ 119 µM) | COc1ccc(CCN2CCC(Nc3nc4ccccc4n3Cc3ccc(F)cc3)CC2)cc1
82 | > 27 | O=c1c2ccccc2nc2n1CCC2
83 | > 57 | NCC(=O)Nc1cncc(-c2nn3c(=O)cc(N4CCNCC4)nc3s2)c1
84 | < 1 | CS(=O)(=O)N1CCN(c2nc(-c3ccc(Br)cc3)cs2)CC1
85 | > 66 | Cc1noc(C)c1S(=O)(=O)Nc1cnccc1C(=O)Nc1nc(-c2ccccc2)cs1
86 | 36.8 (≈ 84.3 µM) | CC(=O)c1c(C)[nH]c(C(=O)Nc2cccc([S+](=O)([O-])Nc3ccc(C#N)cc3)c2)c1C
87 | < 1 | Cc1nc2ccc(Nc3nc(-c4ccncc4)nc4ccccc34)cc2s1
88 | 2.11 (≈ 4.15 µM) | Cc1ccc(S(=O)(=O)Nc2cnccc2C(=O)Nc2nc(-c3nc4ccccc4s3)cs2)cc1
89 | > 54 | COc1cccc2nc(-c3cccs3)nc(NN3C(=O)C=C(C)C3=O)c12
90 | < 1 | Cc1nc2ccc(NC(=O)c3cc(S(=O)(=O)N(C)c4ccccc4)ccc3Cl)cc2s1
91 | < 1 | Cc1nc2c(-c3ccccc3)cnn2c(N)c1-c1ccccc1
92 | 1.46 (≈ 3.79 µM) | O=C(CNC(=O)c1cnccn1)NC1CCCc2c1[nH]c1ccc(Cl)cc21 (centres undefined)
93 | < 1 | Cc1cc(C)cc(C(=O)Nc2ccc3c(N4CCCC4)ncnc3c2)c1
94 | 36.5 (≈ 106 µM) | c1ccc(CNc2cc3c(cn2)CN(Cc2cccnc2)CCN3)cc1
95 | < 1 | Cc1ccc(NC(=O)c2c(N3CCCC3=O)c3cc(C)ccc3n2C)c(C)c1
96 | 19.4 (≈ 57.1 µM) | Cc1nc(Sc2nnnn2C)c2c(-c3ccccc3)csc2n1
97 | 11 (≈ 23.2 µM) | CC(C)(O)CNc1nc(Nc2ccnc(C(F)(F)F)c2)nc(-c2cccc(C(F)(F)F)n2)n1
98 | < 1 | COc1ccc(NC(=O)c2c(C)cccc2C)cc1S(=O)(=O)Nc1ccc(Br)cc1
99 | < 1 | FC(F)(F)c1cccc(N2CCN(C(=S)Nc3cc4ccccc4cn3)CC2)c1

Reference: PubChem BioAssay AID1645848
